Data as given in ChEMBL document CHEMBL5712883, “RNA polymerase II stalling promotes nucleosome occlusion and pTEFb recruitment to drive immortalization by Epstein-Barr virus” (PLoS Pathog, 2011).
The source made the active and inactive calls. No cut-off for these calls is given here.

Columns and labels:
Settings in all cases: Mutu-3, dose 50.0 nM, time 48.0 hrs
[1] = target: Bromodomain-containing protein 4 (Homo sapiens) (UniProt O60885)
Description: Inhibition of BRD4 in human Mutu-3 cells assessed as decrease in Cp-initiated EBNA 2 transcription at 50 nM incubated for 48 hrs by Q-PCR analysis relative to control

[2] = target: Bromodomain-containing protein 4 (Homo sapiens) (UniProt O60885); remark: listed apart in the source
Description: Inhibition of BRD4 in human Mutu-3 cells assessed as decrease in CDK9 association in +48 cp region at 50 nM incubated for 48 hrs by CHIP analysis

[3] = target: Bromodomain-containing protein 4 (Homo sapiens) (UniProt O60885); remark: listed apart in the source
Description: Inhibition of BRD4 in human Mutu-3 cells assessed as decrease in Cp-initiated LMP1 transcription at 50 nM incubated for 48 hrs by Q-PCR analysis relative to control

[4] = target: Bromodomain-containing protein 4 (Homo sapiens) (UniProt O60885); remark: listed apart in the source
Description: Inhibition of BRD4 in human Mutu-3 cells assessed as decrease in Cyclin T1 association in +295 cp region at 50 nM incubated for 48 hrs by CHIP analysis

[5] = target: Bromodomain-containing protein 4 (Homo sapiens) (UniProt O60885); remark: listed apart in the source
Description: Inhibition of BRD4 in human Mutu-3 cells assessed as decrease in Cyclin T1 association in -208 cp region at 50 nM incubated for 48 hrs by CHIP analysis

[6] = target: Bromodomain-containing protein 4 (Homo sapiens) (UniProt O60885); remark: listed apart in the source
Description: Inhibition of BRD4 in human Mutu-3 cells assessed as decrease in Brd4 association in -40 cp region at 50 nM incubated for 48 hrs by CHIP analysis

[7] = target: Bromodomain-containing protein 4 (Homo sapiens) (UniProt O60885); remark: listed apart in the source
Description: Inhibition of BRD4 in human Mutu-3 cells assessed as decrease in CDK9 association in -40 cp region at 50 nM incubated for 48 hrs by CHIP analysis

[8] = target: Bromodomain-containing protein 4 (Homo sapiens) (UniProt O60885); remark: listed apart in the source
Description: Inhibition of BRD4 in human Mutu-3 cells assessed as decrease in Brd4 association in +48 cp region at 50 nM incubated for 48 hrs by CHIP analysis

[9] = target: Bromodomain-containing protein 4 (Homo sapiens) (UniProt O60885); remark: listed apart in the source
Description: Inhibition of BRD4 in human Mutu-3 cells assessed as decrease in Brd4 association in +295 cp region at 50 nM incubated for 48 hrs by CHIP analysis

[10] = target: Bromodomain-containing protein 4 (Homo sapiens) (UniProt O60885); remark: listed apart in the source
Description: Inhibition of BRD4 in human Mutu-3 cells assessed as decrease in Cp-initiated EBNA 1 transcription at 50 nM incubated for 48 hrs by Q-PCR analysis relative to control

[11] = target: Bromodomain-containing protein 4 (Homo sapiens) (UniProt O60885); remark: listed apart in the source
Description: Inhibition of BRD4 in human Mutu-3 cells assessed as decrease in Cyclin T1 association in -40 cp region at 50 nM incubated for 48 hrs by CHIP analysis

[12] = target: Bromodomain-containing protein 4 (Homo sapiens) (UniProt O60885); remark: listed apart in the source
Description: Inhibition of BRD4 in human Mutu-3 cells assessed as decrease in Cyclin T1 association in +48 cp region at 50 nM incubated for 48 hrs by CHIP analysis

[13] = target: Bromodomain-containing protein 4 (Homo sapiens) (UniProt O60885); remark: listed apart in the source
Description: Inhibition of BRD4 in human Mutu-3 cells assessed as decrease in CDK9 association in +295 cp region at 50 nM incubated for 48 hrs by CHIP analysis

[14] = target: Bromodomain-containing protein 4 (Homo sapiens) (UniProt O60885); remark: listed apart in the source
Description: Inhibition of BRD4 in human Mutu-3 cells assessed as decrease in Brd4 association in -208 cp region at 50 nM incubated for 48 hrs by CHIP analysis

[15] = target: Bromodomain-containing protein 4 (Homo sapiens) (UniProt O60885); remark: listed apart in the source
Description: Inhibition of BRD4 in human Mutu-3 cells assessed as decrease in CDK9 association in -208 cp region at 50 nM incubated for 48 hrs by CHIP analysis

Cc1sc2c(c1C)C(c1ccc(Cl)cc1)=N[C@@H](CC(=O)OC(C)(C)C)c1nnc(C)n1-2
inhibition [1]: 74%
inhibition [2]: Active
inhibition [3]: inactive
inhibition [4]: Active
inhibition [5]: Active
inhibition [6]: Active
inhibition [7]: Active
inhibition [8]: Active
inhibition [9]: Active
inhibition [10]: 65%
inhibition [11]: Active
inhibition [12]: Active
inhibition [13]: Active
inhibition [14]: Active
inhibition [15]: Active
